The text below walks through data of patent publication US20090060851A1, “USE OF IDEBENONE FOR THE PREPARATION OF A TOPICALLY-APPLIED DEPIGMENTATION COMPOSITION AND CORRESPONDING COMPOSITION” (priority 2005, published 2009).

One data set concerns skin of nude adult mice. Put plainly: Epidermal and dermal morphometry, mouse skin. The data set is classed as in vivo. The protocol: Creams containing 5% and 2.5% w/w idebenone (IDB) in a neutral phase were prepared. Said creams and a cream having an identical formulation but without idebenone were applied on nude adult mice with 3 months of age. The cream with idebenone was applied on the right half of the body of the animals and the control cream on the left half according to the scheme detailed below. The animals were sacrificed 1, 2, 3 or 4 hours after applying the cream (p.a.). • Batch A: animal treated with 5% IDB (1 hour p.a.) • Batch B: animal treated with 2.5% IDB (1 hour p.a.) • Batch C: animal treated with 5% IDB (2 hours p.a.) • Batch D: animal treated with 2.5% IDB (2 hours p.a.) • Batch E: animal treated with 5% IDB (3 hours p.a.) • Batch F: animal treated with 2.5% IDB (3 hours p.a.) • Batch G: animal treated with 5% IDB (4 hours p.a.) • Batch H: animal treated with 2.5% IDB (4 hours p.a.)
Morphological and morphometric studies: Thickness of the epidermis, the horny layer, the papillary dermis and reticular dermis was measured in at least 10 different points, the result being expressed as the average of the 10 measurements. Capillary vessel diameter was also measured in at least 10 points, expressing them by means of their average. The measurements were carried out using a Quantimet 500+ (Leica) image processing equipment. […]

For another data set, the system named is SK-MEL-28. Put plainly: Cell number quantitation with violet crystal. The data set is classed as cell-based, human. The protocol:
Cells: The study was carried out using a cell line derived from human melanoma, provided by ABAC (Asociación Banco Argentino de Células—Cell Bank of Argentina), with melanin synthesis capability (SK-MEL-28, ATCC origin). […] Study of in vitro compounds: […] After 24 hours have lapsed, the medium was replaced with 990 μl of fresh medium. 10 μl of sterile vehicle (50% propylene glycol, 30% ethanol and 20% distilled water) containing different concentrations of the compounds to be evaluated were added to this fresh medium. […] On the fourth day, the cells were not treated, and the remaining adherent cells were assayed on the fifth day according to the methods described below. The cells were thus continuously exposed to the compounds under study for the 5 days the culture lasted. All the concentrations of the compounds were studied in triplicate, comparing the mean of the 3 wells treated with the compounds with those treated with the vehicle alone. Cell number quantitation with violet crystal: A stain with a violet crystal aqueous solution was used for the purpose of determining the number of cells adhering to the plastic surviving in vitro treatment by means of indirect methods. […] The dishes were stained for 5 minutes at room temperature on a rotary platform, with gentle stirring. Then the excess colorant was decanted by turning the dish over and the entire dish was submerged 4 times in distilled water in a suitable container. After rinsing, the dishes were turned over and allowed to drip on absorbent paper until the excess water was completely removed. […] The plates were finally placed on a rotary agitator for 30 minutes at room temperature. […] In order to determine the fraction of cells surviving treatment at a specific concentration of the experimental agent, the OD590 of the treated wells (average of three measurements) was divided by the OD590 of the wells used with a control vehicle (average of three measurements).

For data set [1] the following is noted: Arzneim. Forsch/drug res. 35 (II), 11, pp. 1704, 1985; cited from earlier work.

For the compound `COC1=C(OC)C(=O)C(CCCCCCCCCCO)=C(C)C1=O` [idebenone, 6-(10-hydroxydecyl)-2,3-dimethoxy-5-methyl-1,4-benzoquinone], the “Thicknesses of the papillary dermis and the reticular dermis” value in the data set with skin of nude adult mice (nude mice skin, 5% and 2.5% IDB creams versus control) is “did not significantly vary”. Besides, the “Effect on epidermal thickness” value in the data set on skin of nude adult mice (nude mice, topically applied) was “does not substantially modify epidermal thickness”. Besides, the Toxicity for cells result in the data set on SK-MEL-28 (SK-MEL-28, high concentrations) was “may be toxic for cells”. The “Percentage of viable cells” value is given as 52% in the data set with SK-MEL-28 (dilution −1, percentage of control vehicle); 82% in the data set with SK-MEL-28 (dilution −2, percentage of control vehicle); 98% in the data set with SK-MEL-28 (dilution −3, percentage of control vehicle); 100% with SK-MEL-28 (dilution −4, percentage of control vehicle); 100% in the data set on SK-MEL-28 (dilution −5, percentage of control vehicle). The Toxic effects reported entry in data set [1] is on record as “no significant toxic effects have been reported”.
